What was measured:
[1] = tested on: LC319 cells; experiment: Measurement of cAMP levels (cAMP EIA); format: cell-based, human; conditions: for cAMP production: final concentrations of 3 to 100 μM
Protocol: (§1) Trypsinized LC319, REF-LC-AI, NCI-H358 and SK-MED-1 cells were seeded onto a 96-well microtiter plate (5.0×10^4 cells) and cultured in appropriate medium supplemented with 10% FCS for 24 hours, and then the medium was changed to serum free/1 mM IBMX (isobutylmethylxanthine) 20 min prior to the assay. Next, the cells were incubated with individual concentrations of peptides (NMU-25, GHRL, or NTS) for 20 min and cAMP levels of the cells were measured using cAMP EIA System (GE Healthcare Bio-sciences).

[2] = tested on: NCI-H358 cells; experiment: Measurement of cAMP levels (cAMP EIA); format: cell-based, human; conditions: expressing either of the receptors, 3 to 50 μM
Protocol: as §1

[3] = tested on: SK-MES-1 cells; experiment: Measurement of cAMP levels (cAMP EIA); format: cell-based, human; conditions: expressing either of the receptors, 3 to 50 μM
Protocol: as §1

[4] = tested on: RERF-LC-AI cells; experiment: Measurement of cAMP levels (cAMP EIA); format: cell-based, human; conditions: both receptors at low levels, 3 to 50 μM
Protocol: as §1

[5] = tested on: COS-7 cells; experiment: Autocrine assay: growth of cells cultured with NMU-25 (MTT, colony formation); format: cell-based; conditions: 0.3 to 15 μM, vs BSA control, 144 hours
Protocol: To confirm the autocrine function of NMU in the growth of mammalian cells, COS-7 cells were cultured in medium containing the active form of a 25-amino-acid polypeptide of NMU (NMU-25; Sigma-Aldrich Co.) at final concentrations of 0.3 to 15 μM. The same concentrations of BSA served as controls. The peptides/proteins were added every 48 hours for 6 days. At the 144-hours time point, cell proliferation was evaluated by MTT and colony-formation assays.

[6] = molecular target: T1, GHSR1b/NTSR1 (Homo sapiens, UniProt P30989+Q92847); experiment: Immunocytochemistry for internalized receptors, endogenous receptors in LC319 cells; format: cell-based
T1 construct: endogenous in cells; host or cells: LC319

[7] = tested on: FOXM1; experiment: Induction of FOXM1 expression by NMU ligand-receptor signaling in LC319 cells; format: cell-based, human; conditions: 25 μM, vs BSA control
Protocol: Total RNA was extracted from cultured cells and clinical tissues using Trizol reagent (Life Technologies, Inc.) according to the manufacturer's protocol. Extracted RNAs and normal human tissue poly(A) RNAs were treated with DNaseI (Nippon Gene) and were reverse-transcribed using oligo(dT)20 primer and SuperSpcript II reverse transcriptase (Invitrogen). Semiquantitative RT-PCR experiments were carried out with the following synthesized gene-specific primers and beta-actin (ACTB)-specific primers as internal control: […]

[8] = molecular target: T2, GHSR1b/NTSR1 (Homo sapiens, UniProt P30989+Q92847, A200T); experiment: Immunocytochemistry for internalized receptors, transfected COS-7 cells; format: cell-based; conditions: COS-7 cells with introduced receptors, 10 μM, time-dependent
T2 construct: expressed in transfected cells; host or cells: COS-7
Protocol: To investigate the association of NMU-25 with its candidate receptors, GHSR1b and NTSR1, the following experiments were performed. The entire coding region of each of the receptor genes was amplified by RT-PCR using primers: […]
The products were digested with EcoRI and BamHI and cloned into appropriate sites of p3XFLAG-CMV10 vector (Sigma-Aldrich Co.). COS-7 cells were transfected with FLAG-tagged GHSR1b or NTSR1 expression plasmid using FuGENE 6 Transfection Reagent as described above. The cells subjected to internalization assays were exposed to NMU-25 (10 μM) for 120 min. The cells were then fixed with 4% paraformaldehyde solution for 15 min at 37° C., and washed with PBS(−). Specimens were incubated in PBS(−) containing 0.1% Triton X-100 for 10 min and subsequently washed with PBS(−). Prior to primary antibody reaction, the cells were incubated in CAS-BLOCK (ZYMED Laboratories Inc.) for 10 min to block non-specific antibody binding. Then, the cells were incubated with both rabbit polyclonal and anti-GHSR antibody and goat polyclonal anti-NTSR1 antibody. The antibodies were stained with both anti-rabbit secondary antibody conjugated to Alexa Fluor 488 (Molecular Probes) and anti-goat secondary antibody conjugated to Alexa Fluor 594 (Molecular Probes). […] Images were viewed and assessed using confocal microscopy (TCS SP2 AOBS; Leica Microsystems).

[9] = molecular target: T3, endogenous GHSR1b and NTSR1 on LC319 cells (Homo sapiens, UniProt P30989+Q92847); experiment: Ligand-receptor binding assay with Cy5-labeled NMU-25; conditions: 10-fold excess unlabeled NMU-25
T3 construct: endogenous in cells; host or cells: LC319
Protocol: (§2) To confirm the binding of NMU-25 to endogenous candidate receptors on the NSCLC cell, a receptor-ligand binding assay using LC319 and PC14 cells that express GHSR1b and NTSR1, but not NMU1R and NMU2R were performed. Specifically, trypsinized cells were seeded onto a 96-well (with black wall and clear bottom) microtiter plates 24 hours prior to the assay. The medium was removed and the cells were incubated with CyS-labeled NMU-25 peptide (1 μM) with or without the addition of 10-fold excess unlabeled NMU-25 peptide as the competitor. The plate was incubated in dark for 24 hours at 37° C. and then scanned on 8200 Cellular Detection System (Applied Biosystems) to quantify the amount of CyS fluorescence probe bound to the surface of each cell. (15) Immunocytochemistry for Internalized Receptors

[10] = molecular target: T4, endogenous GHSR1b and NTSR1 on PC14 cells (Homo sapiens, UniProt P30989+Q92847); experiment: as above; conditions: 10-fold excess unlabeled NMU-25
T4 construct: endogenous in cells; host or cells: PC14
Protocol: as §2

[11] = tested on: NSCLC cells; experiment: Competition of NMU-induced cAMP production; format: cell-based
[12] = molecular target: T5, NMU1R-expressing cells (Homo sapiens, UniProt Q9HB89); conditions: cited from earlier work
T5 construct: host or cells: NMU1R-expressing cells
T5 sequence (Q9HB89 1-426): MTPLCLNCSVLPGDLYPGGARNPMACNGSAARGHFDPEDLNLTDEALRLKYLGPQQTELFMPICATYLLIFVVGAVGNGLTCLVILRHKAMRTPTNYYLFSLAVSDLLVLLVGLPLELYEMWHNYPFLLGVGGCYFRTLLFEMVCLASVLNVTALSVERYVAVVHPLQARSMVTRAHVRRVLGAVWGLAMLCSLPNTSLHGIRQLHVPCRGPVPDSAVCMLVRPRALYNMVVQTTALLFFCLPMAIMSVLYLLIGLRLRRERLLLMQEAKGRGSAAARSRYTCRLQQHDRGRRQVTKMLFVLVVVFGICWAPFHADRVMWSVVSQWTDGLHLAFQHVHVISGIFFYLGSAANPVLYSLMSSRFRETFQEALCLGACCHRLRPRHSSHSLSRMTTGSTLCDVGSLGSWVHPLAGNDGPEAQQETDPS

[13] = tested on: LC319 cells; experiment: Intracellular Ca^2+ mobilization assay (FLIPR); format: cell-based, human
Protocol: Trypsinized LC319 cells were seeded onto poly-D-lysine coated 384-well black-wall, clear-bottom microtiter plate (1.0×10^4 cells/ml) 24 hours prior to the assay. The cells were loaded for 1 hour with 4 μM Fluo-3-AM fluorescent indicator dye in assay buffer (Hank's balanced salt solution, 20 mM HEPES, 2.5 mM probenecid), washed three times with assay buffer, and then incubated for 10 min at room temperature before detection on fluorometric imaging plate reader (FLIPR; Molecular Devices). Fluorescence data of Ca^2+ release were collected in real-time at 1 sec intervals for the first 65 sec and at 3 sec intervals for additional 300 sec after individual concentrations of peptide (NMU-25, […], or NTS) treatment. Maximum change in fluorescence over baseline was measured to determine the response of the cells to the individual peptide stimulations.

T3 sequence (Q92847 1-289 isoform Q92847-2): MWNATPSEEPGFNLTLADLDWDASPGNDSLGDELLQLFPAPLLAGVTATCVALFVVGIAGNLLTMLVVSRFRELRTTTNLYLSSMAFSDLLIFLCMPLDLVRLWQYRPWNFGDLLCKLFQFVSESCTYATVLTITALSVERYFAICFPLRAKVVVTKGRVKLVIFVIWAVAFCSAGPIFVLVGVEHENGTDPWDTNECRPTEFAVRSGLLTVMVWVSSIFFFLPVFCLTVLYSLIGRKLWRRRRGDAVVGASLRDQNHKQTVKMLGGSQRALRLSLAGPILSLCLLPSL
T3 sequence (P30989 whole entry): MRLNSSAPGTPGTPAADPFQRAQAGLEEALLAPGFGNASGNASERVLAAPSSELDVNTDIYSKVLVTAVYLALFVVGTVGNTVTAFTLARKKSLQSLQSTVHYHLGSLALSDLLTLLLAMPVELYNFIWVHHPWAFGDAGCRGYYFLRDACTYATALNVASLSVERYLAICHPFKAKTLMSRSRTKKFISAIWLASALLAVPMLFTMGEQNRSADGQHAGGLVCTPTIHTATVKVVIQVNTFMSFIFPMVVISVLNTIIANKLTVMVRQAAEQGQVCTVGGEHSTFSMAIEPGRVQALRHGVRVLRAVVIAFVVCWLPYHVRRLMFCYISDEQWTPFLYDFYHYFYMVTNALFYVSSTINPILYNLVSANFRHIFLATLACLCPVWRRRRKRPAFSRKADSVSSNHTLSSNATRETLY
T1 sequence (Q92847 1-289 isoform Q92847-2): as the sequence (Q92847 1-289 isoform Q92847-2) above
T1 sequence (P30989 whole entry): as the sequence (P30989 whole entry) above
T4 sequence (Q92847 1-289 isoform Q92847-2): as the sequence (Q92847 1-289 isoform Q92847-2) above
T4 sequence (P30989 whole entry): as the sequence (P30989 whole entry) above
T2 sequence (Q92847 1-289 isoform Q92847-2, stated change not applied): as the sequence (Q92847 1-289 isoform Q92847-2) above
T2 sequence (P30989 whole entry A200T): as the sequence (P30989 whole entry) above, with A200T counted along it

| Substance | cAMP production [1] | intracellular cAMP production by NMU-25 (FIG. 3A) ([1]; high levels of both receptors, 3 to 50 μM) | intracellular cAMP production by NMU-25 (FIG. 3C) [2] | intracellular cAMP production by NMU-25 (FIG. 3D) [3] | intracellular cAMP production by NMU-25 (FIG. 3B) [4] | cell growth (MTT assay) [5] | cell growth (colony-formation assay) [5] | subcellular distribution of GHSR1b and NTSR1 after stimulation [6] | expression of FOXM1 [7] | subcellular distribution of GHSR1b and NTSR1 after stimulation [8] | binding activity of Cy5-labeled NMU-25 with unlabeled competitor [9] | binding activity of Cy5-labeled NMU-25 with unlabeled competitor [10] | NMU-induced cAMP production [11] | displacement of 125I-labeled rat NMU-binding [12] | intracellular Ca^2+ flux / mobilization [13] |
| --- | --- | --- | --- | --- | --- | --- | --- | --- | --- | --- | --- | --- | --- | --- | --- |
| NMU-25: active form of a 25-amino-acid polypeptide of NMU (Sigma-Aldrich Co.) (FRVDEEFQSPFASQSRGYFLFRPRN) | Enhancement of cAMP production | marked and reproducible cAMP accumulation | did not show detectable cAMP production | did not show detectable cAMP production | not significant but low cAMP production | enhanced cell growth in a dose-dependent manner | enhanced cell growth in a dose-dependent manner | induced co-internalization | enhanced expression of FOXM1 | co-internalized | inhibited | inhibited |  |  |  |
| ghrelin (GSSFLSPEHQRVQQRKESKKPPAKLQPR) [GHRL, 28-amino-acid peptide, known ligand of GHSR] | did not enhance |  |  |  |  |  |  |  |  |  |  |  | competitively inhibited | did not displace | not the treatment with GHRL caused the mobilization response |

Source: patent publication US20090311685A1, “NMU-GHSR1b/NTSR1 oncogenic signaling pathway as a therapeutic target for lung cancer” (Oncotherapy Science, Inc, priority 2006, published 2009)
